According to ChEMBL document CHEMBL1151894, “Novel immunoconjugates comprised of streptonigrin and 17-amino-geldanamycin attached via a dipeptide-p-aminobenzyl-amine linker system” (Bioorg Med Chem Lett, 2009):

Legend:
Type in all cases: functional, cell-based
CAKI-1 = assay: Cytotoxicity against CD30 deficient and CD70 expressing human Caki1 cells after 96 hrs by resazurin conversion assay; conditions: CAKI-1, 96 h
KARPAS-299 = assay: Cytotoxicity against CD30 expressing and CD70 deficient human KARPAS299 cells after 96 hrs by resazurin conversion assay; conditions: KARPAS-299, 96 h
[1] = Cytotoxicity against CD30 expressing and CD70 deficient human L540cy cells after 96 hrs by resazurin conversion assay

COC1=C(N)C(=O)c2nc(-c3nc(C(=O)O)c(C)c(-c4ccc(OC)c(OC)c4O)c3N)ccc2C1=O [STREPTONIGRIN]
IC50 (CAKI-1): 0.4 nM | IC50 (KARPAS-299): 0.4 nM | IC50 [1]: 0.8 nM
